# How the values were obtained:
# [1] = system: Human-derived uterus cancer cell line HeLa-luc; test: Schedule study of combined use of compound I and paclitaxel in HeLa-luc grafted nude rats; assay type: in vivo; conditions: group 1: paclitaxel 10 mg/kg i.v. on day 1 alone; 5 rats
# Source text: Human-derived uterus cancer cell line HeLa-luc (PerkinElmer, Inc.) cells transfected with luciferase gene were subcutaneously grafted at 1×10^7 cells to the right abdomens of nude rats (lineage: F344/NJcl-rnu/rnu, female, distributor: CLEA Japan, Inc.). When the volume of the grafted tumor reached approximately 200 mm^3, the rats were divided into groups each consisting of 5 rats according to stratified randomization such that each group had almost the same tumor volume.
# To group 1, paclitaxel (10 mg/kg) alone was intravenously administered on day 1. To groups 2 to 5, paclitaxel was administered and, on the next day, the hydrochloride of the compound I (30 mg/kg, based on free form) obtained in Reference Example 1 was orally administered twice per day for 1 day, 2 days, 3 days or 4 days (Sequential treatment; see FIG. 1). […]
# The presence or absence of a therapeutic effect was determined by measuring the major axis and minor axis of tumor with time and calculating a tumor volume (TV), relative tumor volume (RTV) and T/C (%) value (average relative tumor volume ratio of the treatment group to the control group) on day 10 after initiation of administration, according to the following formulas. […]
# [2] = system: small-cell lung cancer (SCLC); conditions: paclitaxel once per week; MLN8237 twice per day for 3 days, 4 days off; cited from earlier work
# tumor = conditions: rats, 24 hours later MK-5108 orally twice per day for 2 days; cited from earlier work
# [3] = Phase 1 clinical dose escalation trial with paclitaxel: safety, dose-limiting toxicity; assay type: in vivo, human
# Procedure: (§1) Paclitaxel and compound I in the form of hydrochloride were administered to cancer patients and evaluated for safety and efficacy. This study was conducted targeting solid cancer patients for whom a standard treatment is not effective, or a treatment is not present. Cancers found to affect the patients included the carcinoma shown in FIG. 3 (urothelial cancer, adrenal cancer, pancreatic cancer, colon cancer, cervical cancer, bile duct cancer, hepatocellular carcinoma, prostate cancer, head and neck cancer, ovarian cancer, gallbladder cancer, non-small cell lung cancer, parotid gland cancer, breast cancer, and fallopian tube cancer). This study also corresponds to a phase 1 clinical dose escalation trial for mainly evaluating safety and determining a recommended dose (RD), that can be administered safely without a concerned side effect in a phase 1 clinical expansion cohort test to be performed on a carcinoma basis.
# (§2) A weekly administration regimen was adopted to paclitaxel, in which paclitaxel was administered once per week for 3 weeks, followed by cessation of the drug for 1 week. This administration method is a standard paclitaxel administration regimen and is widely used in clinical practice. On the other hand, the compound I was administered twice per day for 2 or 3 or 4 days from the same day as paclitaxel administration or 1 day after paclitaxel administration; this regimen was performed for 3 weeks together with the weekly paclitaxel administration; and week 4 was set to cessation of the compound I, in accordance with the cessation of paclitaxel. Each administration schedule (dose level) was evaluated from results of administration to 2 to 7 patients.
# [4] = in vivo; cited from earlier work
# solid cancer = test: Phase 1 clinical dose escalation trial with paclitaxel: tumor reduction effect (RECIST); assay type: in vivo, human; conditions: for cases in which a tumor reduction effect was observed: equal dose per day
# Procedure: as §1
# In addition to the evaluation of safety, a therapeutic effect on tumor was also evaluated, if possible. The therapeutic effect on tumor was determined as a tumor reduction effect by comprehensive evaluation of target lesions (lesions equal to or larger than a measurable size according to a slice width by CT, etc.) and non-target lesions (all lesions other than the target lesions) with reference to the RECIST evaluation method (Journal of the National Cancer Institute, 2000, Vol 92, No. 3, 205-216J). The dose of the compound I is a weight based on free form.
# In this study, PR (partial response) refers to 30% or more decrease in the sum of the major axis of target lesions, compared to that before administration. PD (progressive disease) refers to 20% or more relative increase in the sum of the major axis of target lesions, compared to the smallest sum of the major axis recorded after the start of the study, 5 mm or more absolute increase in the sum of the major axis, or apparent exacerbation of existing non-target lesions or a new lesion. SD (stable disease) refers to insufficient tumor reduction to qualify for PR and insufficient increase to qualify for PD, without progression and exacerbation of tumor, compared to the smallest sum of the major axis recorded after the start of the study.
# as §2
# Aurora A = target: T1, Aurora A (Homo sapiens, UniProt O14965); conditions: cited from earlier work
# T1 sequence (O14965 1-403): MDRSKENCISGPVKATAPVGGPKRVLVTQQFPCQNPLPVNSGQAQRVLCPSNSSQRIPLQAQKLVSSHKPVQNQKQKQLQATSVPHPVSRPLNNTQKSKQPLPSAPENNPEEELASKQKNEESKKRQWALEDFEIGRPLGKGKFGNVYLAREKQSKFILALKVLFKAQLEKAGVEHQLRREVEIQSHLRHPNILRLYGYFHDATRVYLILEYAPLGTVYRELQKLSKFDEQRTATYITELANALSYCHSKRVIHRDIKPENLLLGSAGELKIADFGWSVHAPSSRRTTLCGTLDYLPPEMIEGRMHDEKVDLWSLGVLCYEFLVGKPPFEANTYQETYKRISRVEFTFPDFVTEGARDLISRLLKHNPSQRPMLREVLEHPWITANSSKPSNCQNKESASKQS
compound,measurement,setting,value
CC(=O)O[C@H]1C(=O)[C@@]2(C)[C@H]([C@H](OC(=O)c3ccccc3)[C@]3(O)C[C@H](OC(=O)[C@H](O)[C@@H](NC(=O)c4ccccc4)c4ccccc4)C(C)=C1C3(C)C)[C@]1(OC(C)=O)CO[C@@H]1C[C@@H]2O [paclitaxel],number of CR (complete remission) cases,[1],no CR cases were observed
COc1cc(Nc2ncc3c(n2)-c2ccc(Cl)cc2C(c2c(F)cccc2OC)=NC3)ccc1C(=O)O [alisertib],adverse events,[2],serious adverse events such as neutropenia was found
same,efficacy in combination with paclitaxel,[2],effective for small-cell lung cancer
O=C(O)[C@]1(Cc2cccc(Nc3nccs3)n2)CC[C@@H](Oc2cccc(Cl)c2F)CC1 [MK-5108],effect on side effect of docetaxel,tumor,without exacerbating the side effect of docetaxel
same,effect on tumor reduction effect of docetaxel,tumor,tumor reduction effect of docetaxel is enhanced
"Cc1cc(Nc2nc(CC3(C(=O)O)CCN(C(=O)c4cccc(Cl)c4Cl)CC3)ccc2F)n[nH]1 [compound I, 1-(2,3-dichlorobenzoyl)-4-[5-fluoro-6-(5-methyl-1H-pyrazol-3-ylamino)pyridin-2-yl]methyl-4-piperidinecarboxylic acid]",patients with dose-limiting toxicity (DLT),"[3]; DL1: paclitaxel 90 mg/m^2/day weekly, compound I 25 mg/dose twice per day for 4 days from same day as paclitaxel, 3 weeks",two out of three
same,tolerability determination of the dose level,"[3]; DL1: paclitaxel 90 mg/m^2/day, compound I 25 mg/dose twice per day for 4 days",exceed the maximum tolerable dose
same,tolerability determination of the dose level,"[3]; DL2: paclitaxel 70 mg/m^2/day, compound I for 2 days",tolerable
same,patients with dose-limiting toxicity (DLT),"[3]; DL2: paclitaxel 70 mg/m^2/day, compound I for 2 days from 1 day after paclitaxel",not observed in any of three cases
same,tolerability determination of the dose level,"[3]; DL6: paclitaxel 80 mg/m^2/day, compound I 75 mg per dose twice per day for 3 days",most suitable as the maximally tolerated dose
same,patients with grade 3 or higher dose-limiting toxicity,"[3]; DL6: paclitaxel 80 mg/m^2/day, compound I 75 mg per dose twice per day for 3 days from day following paclitaxel",not observed in any of seven cases
same,tolerability determination of the dose level,"[3]; DL7: paclitaxel 80 mg/m^2/day, compound I 100 mg per dose twice per day for 3 days",exceed the maximum tolerable dose
same,patients with dose-limiting toxicity (DLT),"[3]; DL7: paclitaxel 80 mg/m^2/day, compound I 100 mg per dose twice per day for 3 days from day following paclitaxel",two out of three
same,tolerability,"[3]; compound I 2 consecutive days, 75 mg per dose, total 300 mg per week, with paclitaxel",tolerable without the dose-limiting toxicity
same,oral absorbability,[4],excellent in oral absorbability
same,patients in which a tumor reduction effect was observed,"solid cancer; 2 on 5 off schedule, 6 out of 12 patients, with paclitaxel",50%
same,cases that had PR,"solid cancer; 2 on 5 off schedule, one out of 12 cases, with paclitaxel",8.3%
same,cases that manifested PR,"solid cancer; 3 on 4 off schedule (dose levels 6 and 7), 3 out of 8 cases, with paclitaxel",38%
same,patients in which a tumor reduction effect was observed,"solid cancer; 3 on 4 off schedule, 7 out of 8 patients, with paclitaxel",88%
same,number of patients with PR (partial response),"solid cancer; all dose levels, 22 evaluable cases, combination with paclitaxel",5
same,cases in which a tumor reduction effect was observed,"solid cancer; 2 on 5 off (dose level 5), 1 out of 3 cases, with paclitaxel",33%
same,cases in which a tumor reduction effect was observed,"solid cancer; 3 on 4 off (dose level 6), 4 out of 5 cases, with paclitaxel",80%
same,Aurora A selective inhibitory activity,Aurora A,excellent

# From patent publication US12036215B2, “Antitumor agent and method for tumor therapy” (TAIHO PHARMACEUTICAL CO., LTD., priority 2018, dated 2024)
